Read-outs that look alike come from different tables or passages of the source.
Key:
[1] = target: T1, HDAC1 (Homo sapiens, UniProt Q13547); test: HDAC enzyme assay, in vitro biochemical
T1 construct: purchased BPS Biosciences
Description: (§1) In vitro biochemical assays were performed as described previously. Specifically, compounds were dissolved and diluted in assay buffer (50 mM HEPES, pH 7.4, 100 mM KCl, 0.001% Tween-20, 0.05% BSA, and 20 μM Tris (2-carboxyethyl) phosphine) to 6-fold the final concentration. […] The amount of substrate (acetyl-lysine tripeptide) used for each enzyme was equal to the Michaelis constant (Km), as determined by a titration curve. Substrate was diluted in assay buffer to 6-fold of the final concentration with 0.3 μM sequencing grade trypsin (Sigma-Aldrich). The substrate/trypsin mix was added to the enzyme/compound mix and the plate was shaken for 5 seconds and then placed into a SpectraMax M5 microtiter (Molecular Devices) plate reader. The enzymatic reaction was monitored over 30 minutes for release of […] after deacetylation of the lysine side chain in the peptide substrate, and the linear rate of the reaction was calculated.

[2] = target: T2, HDAC2 (Homo sapiens, UniProt Q92769); test: HDAC enzyme assay, in vitro biochemical
T2 construct: purchased BPS Biosciences
T2 sequence (Q92769 whole entry): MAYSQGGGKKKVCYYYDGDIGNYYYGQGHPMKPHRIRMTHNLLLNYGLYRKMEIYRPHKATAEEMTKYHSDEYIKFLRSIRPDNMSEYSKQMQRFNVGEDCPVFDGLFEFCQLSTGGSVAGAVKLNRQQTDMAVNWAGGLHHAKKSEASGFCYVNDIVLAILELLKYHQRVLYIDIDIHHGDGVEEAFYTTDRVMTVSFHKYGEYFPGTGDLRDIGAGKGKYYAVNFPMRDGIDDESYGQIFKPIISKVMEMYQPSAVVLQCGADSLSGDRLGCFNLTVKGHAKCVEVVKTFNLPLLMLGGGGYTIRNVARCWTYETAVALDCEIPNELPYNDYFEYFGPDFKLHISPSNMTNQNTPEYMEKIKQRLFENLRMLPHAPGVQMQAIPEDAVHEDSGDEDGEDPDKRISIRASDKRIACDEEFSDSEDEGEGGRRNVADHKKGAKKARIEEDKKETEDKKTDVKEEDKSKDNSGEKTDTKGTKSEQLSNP
Description: as §1

[3] = target: T3, HDAC3 (Homo sapiens, UniProt O15379); test: HDAC enzyme assay, in vitro biochemical; settings: pre-incubated 24 hours at 4°C; n = 3; read-out: IC50 against HDAC3
T3 construct: purchased BPS Biosciences
T3 sequence (O15379 whole entry): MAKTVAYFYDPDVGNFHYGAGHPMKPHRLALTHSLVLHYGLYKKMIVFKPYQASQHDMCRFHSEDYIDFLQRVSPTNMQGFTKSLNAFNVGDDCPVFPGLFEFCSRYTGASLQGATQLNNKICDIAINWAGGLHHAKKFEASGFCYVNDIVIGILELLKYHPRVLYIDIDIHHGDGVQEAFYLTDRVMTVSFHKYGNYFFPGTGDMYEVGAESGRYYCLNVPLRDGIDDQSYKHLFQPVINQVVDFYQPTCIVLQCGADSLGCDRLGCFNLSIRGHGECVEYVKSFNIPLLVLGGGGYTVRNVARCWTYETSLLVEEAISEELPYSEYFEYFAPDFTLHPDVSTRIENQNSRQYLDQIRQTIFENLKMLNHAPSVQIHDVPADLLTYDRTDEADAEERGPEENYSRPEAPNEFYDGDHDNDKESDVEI
T3 sequence (Q9Y618 395-489 partner limits assumed): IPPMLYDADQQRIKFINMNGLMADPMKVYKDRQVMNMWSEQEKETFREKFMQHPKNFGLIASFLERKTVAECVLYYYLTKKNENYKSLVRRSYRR
Description: as §1

[4] = system: MV-4-11, Kasumi-1 and HL-60 cell lines; test: Histone acetylation by immunoblotting; format: cell-based, human; settings: 24 hours, increasing doses
Text: The EpiQuick Total Histone Extraction kit (Epigentek) was used to isolate histones. Histone lysates were size separated on Bolt 10% Bis-Tris gradient gels (Life Technologies), transferred to polyvinylidene difluoride membranes, blocked in 5% BSA, and detected using standard western blotting techniques.

[5] = system: MV-4-11 and HL-60 cells; test: Flow cytometry, surface level of CD11b (differentiation); format: cell-based, human; settings: single agent, 72 hours
Description: (§2) All compounds and/or solvent DMSO were added concurrently at the indicated doses. Flow cytometry was performed to measure surface level of CD11b, cell cycle distribution, and induction of apoptosis. CD11b and apoptosis were analyzed on a FC500 flow cytometer ([…]) and cell cycle profiled on an Attune NxT (Life Technologies).
The frequency of CD11b positive cells out of total viable cells identified by forward and side scatter profile was quantified.

[6] = system: MV-4-11 and HL-60 cells; test: Flow cytometry, cell cycle (EdU, S phase); format: cell-based, human; settings: single agent, 72 hours
Description: as §2
EdU labeled cells were then mixed with FxCycle Far Red Stain (Life Technologies) and 100 μg RNase A cocktail (Life technologies) for 30 minutes before flow cytometry analysis. Edu positive populations representing S phase cells were quantified.

[7] = system: MV-4-11 and HL-60 cells; test: Flow cytometry, apoptosis (Annexin V); format: cell-based, human; settings: single agent, 96 hours
Description: as §2
Annexin V-positive populations were quantified.

[8] = system: MV-4-11 and HL-60 cells; test: Quantitative real time PCR (qPCR) of CDKN1A, CDKN1C, GATA2, HES1; format: cell-based, human; settings: MV-4-11 and HL-60, 48 hours
Description: RNA isolations were performed on a Qiacube (Qiagen) using the RNeasy Micro Kit (Qiagen) according to manufacturer’s protocol. RNA was converted to cDNA using the High Capacity RNA-to-cDNA Kit (Life Technologies) and qPCR performed using the Taqman Gene Expression Max Mix according to manufacturer’s protocol (Applied Bioscience). The following ThermoFisher taqman probes were used: GATA2 (Hs01060665_g1), GAPDH (Hs0275899_g1), ACTB (Hs00231119_m1), CDKN1A (Hs00355782_m1), CDKN1C (Hs00175938_m1), HES1 (Hs00172878_m1).

[9] = system: live leukemic cells of fresh bone marrow samples from AML patients; settings: read-out: mean IC50, proliferation of primary leukemic cells; 96 hours, n = 38 patient samples
[10] = system: Kasumi-1 cells; test: Cell viability assay (CellTiter-Glo); settings: read-out: IC50 cell viability Kasumi-1; 72 hours
Description: (§3) MV-4-11, Kasumi-1, and HL-60 AML cell lines were all obtained from ATCC. MOLM-13 and NB-4 cell lines were obtained from DSMZ. […] The identity of each cell line was validated and documented by the suppliers. All experiments were performed with cells maintained at low passage numbers.
(§4) Compounds and/or solvent dimethyl sulfoxide (DMSO) were added at the same time using an HP D300 digital dispenser (Hewlett Packard) in triplicate or quadruplicate and incubated for 72 hours at 37°C. Viability was measured by adding 25 μL CellTiter-Glo (Promega), incubating for 10 minutes, and measuring luminescence on a SpectraMax (Molecular Devices). […] CI < 1 indicates synergism, CI = 1 indicates additivity, and CI > 1 indicates antagonism.

[11] = system: HL-60 cells; test: Cell viability assay (CellTiter-Glo); settings: read-out: IC50 cell viability HL-60; 72 hours
Description: as §3, §4

[12] = system: NB-4 cells; test: Cell viability assay (CellTiter-Glo); settings: read-out: IC50 cell viability NB-4; 72 hours
Description: as §3
Compounds and/or solvent dimethyl sulfoxide (DMSO) were added at the same time using an HP D300 digital dispenser (Hewlett Packard) in triplicate or quadruplicate and incubated for 72 hours at 37°C. Viability was measured by adding 25 μL CellTiter-Glo (Promega), incubating for 10 minutes, and measuring luminescence on a SpectraMax (Molecular Devices).

[13] = system: five human AML cell lines (MV-4-11, Kasumi-1, HL-60, MOLM-13, NB-4); test: Cell viability assay, summary over five human AML cell lines; settings: 72 hours
Description: as §3, §4

[14] = system: MV-4-11 cells; test: Cell viability assay (CellTiter-Glo), single agent and combination; settings: read-out: IC50 cell viability MV-4-11; 72 hours
Description: as §3, §4

[15] = system: MOLM-13 cells; test: as above; settings: read-out: IC50 cell viability MOLM-13; 72 hours
Description: as §3, §4

T1 sequence (Q13547 whole entry): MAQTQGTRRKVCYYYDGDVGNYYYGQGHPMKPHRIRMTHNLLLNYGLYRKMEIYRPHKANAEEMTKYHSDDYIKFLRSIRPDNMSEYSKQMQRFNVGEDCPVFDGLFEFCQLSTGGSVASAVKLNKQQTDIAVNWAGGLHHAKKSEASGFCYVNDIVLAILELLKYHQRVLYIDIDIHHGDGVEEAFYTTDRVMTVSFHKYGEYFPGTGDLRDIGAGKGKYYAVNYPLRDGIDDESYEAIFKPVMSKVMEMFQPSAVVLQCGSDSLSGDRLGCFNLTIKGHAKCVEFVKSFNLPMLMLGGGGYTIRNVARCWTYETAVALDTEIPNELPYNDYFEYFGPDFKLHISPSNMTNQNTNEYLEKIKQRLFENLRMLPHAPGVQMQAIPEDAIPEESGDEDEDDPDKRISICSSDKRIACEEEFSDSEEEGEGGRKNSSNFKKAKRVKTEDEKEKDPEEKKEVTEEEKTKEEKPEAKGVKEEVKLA

`Nc1ccc(-c2cccs2)cc1NC(=O)c1ccc2nc(N3CCNCC3)ccc2c1` [ACY-957] was tested, and the “selectivity for HDAC1 over HDAC3” value [1] was “more than 150 fold”, the IC50 ([1]; pre-incubated 24 hours at 4°C, n = 3, read-out: IC50 against HDAC1) was 7.2 nM and the “selectivity for HDAC2 over HDAC3” value [2] was “approximately 50 fold”. The IC50 ([2]; pre-incubated 24 hours at 4°C, n = 3, read-out: IC50 against HDAC2) was 26 nM, the IC50 [3] was 1160 nM and the “acetylation on histone H2B lysine 5 (H2BK5ac) and histone H3 lysine 56 (H3K56ac)” value [4] was “dose-dependent accumulation”. The “differentiation, surface expression of CD11b” value [5] was “dose-dependent induction of differentiation”, the “cells in S phase” value [6] was “dose-dependent reduction of cells in S phase” and the “apoptosis, staining for annexin V” value [7] was “increased staining for annexin V”. The “expression of CDKN1A, CDKN1C, GATA2 and HES1 (qPCR)” value [8] was “up-regulated”, the IC50 [9] was 1100 nM and the IC50 [10] was 1600 nM. It also gave an IC50 [11] of 2200 nM, an IC50 [12] of 1600 nM and an IC50 ([13]; read-out: IC50 values cell viability, range, five human AML cell lines, both compounds) of 800 to 3300 nM. The IC50 ([13]; read-out: average IC50 value, viability of AML cells, average of five AML cell lines) was 1500 nM, the IC50 [14] was 800 nM and the IC50 [15] was 1600 nM.
